Reference: patent publication US20100298141A1, “SUBSTITUTED PYRIDINE N-OXIDE HERBICIDES” (E. I. DU PONT DE NEMOURS AND COMPANY, priority 2007, published 2010)

Key:
spanishneedles = assay: Test F preemergence test; type: in vivo, Bidens bipinnata; details: scale 0 to 100; for Spanishneedles plant response rating: 125 g ai/ha
Source text: (§1) Seeds of plant species selected from bermudagrass (Cynodon dactylon), Surinam grass (Brachiaria decumbens), large crabgrass (Digitaria sanguinalis), green foxtail (Setaria viridis), goosegrass (Eleusine indica), johnsongrass (Sorghum halepense), kochia (Kochia scoparia), pitted morningglory (Ipomoea lacunosa), purple nutsedge (Cyperus rotundus), common ragweed (Ambrosia elation), mustard (Brassica nigra), guineagrass (Panicum maximum), […] (Paspalum dilatatum), barnyardgrass (Echinochloa crus-galli), southern sandbur (Cenchrus echinatus), common sowthistle (Sonchus oleraceous), prickly […] spinosa), Italian ryegrass (Lolium multiflorum), common purslane (Portulaca oleracea), broadleaf signalgrass (Brachiaria platyphylla), common groundsel (Senecio vulgaris), common chickweed (Stellaria media), Virginia dayflower (Commelina virginica), annual bluegrass (Poa annua), naked crabgrass (Digitaria nuda), […] cochinchinensis), quackgrass (Elytrigia repens), Canada horseweed (Conyza canadensis), field bindweed (Convolvulus arvensis), […] (Bidens bipinnata), common mallow (Malva sylvestris), Russian thistle (Salsola kali), and sugarcane (Saccharum officinarum) were planted and treated preemergence with test chemicals formulated in a non-phytotoxic solvent mixture which included a surfactant. At a different time, sugarcane was treated with postemergence applications of some of the test chemicals formulated in the same manner. Plants were approximately 3- to 4-leaf stage for the postemergence treatments. Treated plants and controls were maintained in a greenhouse for 14 to 21 days, after which time all species were compared to controls and visually evaluated. […] A dash (-) response means no test result.

Russian thistle = assay: Test F preemergence test; type: in vivo, Salsola kali; details: scale 0 to 100
Source text: as §1

Canada horseweed = assay: Test F preemergence test; type: in vivo, Conyza canadensis; details: scale 0 to 100
Source text: as §1

common sowthistle = assay: Test F preemergence test; type: in vivo, Sonchus oleraceous; details: scale 0 to 100
Source text: as §1

common chickweed = assay: Test F preemergence test; type: in vivo, Stellaria media; details: scale 0 to 100
Source text: as §1

windgrass = assay: Test C pre-/postemergence test; type: in vivo, Apera spica-venti; details: Postemergence; for Plant response rating, Windgrass: scale 0 to 100, 0 no effect, 100 complete control
canarygrass = assay: Test C postemergence test; type: in vivo, Phalaris minor; details: for Plant response rating (0 to 100), Canarygrass: 31 g ai/ha; for Plant response rating, Canarygrass: scale 0 to 100, 0 no effect, 100 complete control
Method in brief: (§2)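 Postemergence sprays of formulated test chemicals on plants 2 to 18 cm tall (1- to 4-leaf stage). Greenhouse hold for 13 to 15 days, then visual rating of each species against untreated controls; dash means no test result.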

chickweed = assay: Test C postemergence test; type: in vivo, Stellaria media; details: for Plant response rating (0 to 100), Chickweed: 31 g ai/ha; for Plant response rating, Chickweed: scale 0 to 100, 0 no effect, 100 complete control
Method in brief: as §2

winter barley = assay: Test C postemergence test; type: in vivo, Hordeum vulgare; details: for Plant response rating (0 to 100), Barley: 31 g ai/ha; for Plant response rating, Barley: scale 0 to 100, 0 no effect, 100 complete control
Method in brief: as §2

CC(c1c(C(F)(F)F)nn(C)c1OCC(F)(F)F)S(=O)(=O)c1cccc[n+]1[O-] (racemic) [Compound 33]
Spanishneedles plant response rating (spanishneedles; preemergence): 65
Plant response rating, Spanishneedles (spanishneedles; Preemergence, 62 g ai/ha): 35
Plant response rating, Spanishneedles (spanishneedles; Preemergence, 31 g ai/ha): 35
Plant response rating, Russian Thistle (Russian thistle; 16 g ai/ha, preemergence): 0

Cc1cc[n+]([O-])c([S+]([O-])Cc2c(C(F)(F)F)nn(C)c2Cl)c1 (racemic) [Compound 20]
Plant response rating, Horseweed (Canada horseweed; 8 g ai/ha, preemergence): 0
Horseweed plant response rating (Canada horseweed; 62 g ai/ha, Preemergence): 0
Plant response rating, Horseweed (Canada horseweed; Preemergence, 16 g ai/ha): 0
Plant response rating, Horseweed (Canada horseweed; Preemergence, 31 g ai/ha): 0
Plant response rating, Russian Thistle (Russian thistle; Preemergence, 16 g ai/ha): 0
Plant response rating, Sowthistle (common sowthistle; 8 g ai/ha, preemergence): 0
Plant response rating, Sowthistle (common sowthistle; 16 g ai/ha, preemergence): 65
Sowthistle plant response rating (common sowthistle; 62 g ai/ha, Preemergence): 50
Plant response rating, Sowthistle (common sowthistle; Preemergence, 31 g ai/ha): 0
Plant response rating, Chickweed (common chickweed; 8 g ai/ha, preemergence): 0
Chickweed plant response rating (common chickweed; 62 g ai/ha, Preemergence): 95
Plant response rating, Chickweed (common chickweed; Preemergence, 16 g ai/ha): 80
Plant response rating, Chickweed (common chickweed; Preemergence, 31 g ai/ha): 90

Cc1cc[n+]([O-])c(S(=O)(=O)C(C)c2c(C(F)(F)F)nn(C)c2OC(F)F)c1 (stereo not shown) [Compound 11]
Horseweed plant response rating (Canada horseweed; 125 g ai/ha, preemergence): 100
Russian Thistle plant response rating (Russian thistle; 62 g ai/ha, Preemergence): 100
Russian Thistle plant response rating (Russian thistle; 125 g ai/ha, preemergence): 100
Plant response rating, Russian Thistle (Russian thistle; Preemergence, 31 g ai/ha): 100
Sowthistle plant response rating (common sowthistle; 62 g ai/ha, Preemergence): 100
Sowthistle plant response rating (common sowthistle; 125 g ai/ha, preemergence): 100
Plant response rating, Sowthistle (common sowthistle; Preemergence, 31 g ai/ha): 90
Chickweed plant response rating (common chickweed; 62 g ai/ha, Preemergence): 100
Chickweed plant response rating (common chickweed; 125 g ai/ha, preemergence): 100
Plant response rating, Chickweed (common chickweed; Preemergence, 16 g ai/ha): 70
Plant response rating, Chickweed (common chickweed; Preemergence, 31 g ai/ha): 80

Cn1nc(C(F)(F)F)c(C[S+]([O-])c2ccc(Cl)c[n+]2[O-])c1OCC(F)(F)F (racemic) [Compound 62]
Plant response rating (0 to 100), Windgrass (windgrass; 31 g ai/ha): 70
Plant response rating (0 to 100), Windgrass (windgrass; 62 g ai/ha): 80
Plant response rating, Windgrass (windgrass; 125 g ai/ha): 90
Plant response rating, Windgrass (windgrass; 250 g ai/ha): 100
Plant response rating, Horseweed (Canada horseweed; 16 g ai/ha, preemergence): 0
Horseweed plant response rating (Canada horseweed; 62 g ai/ha, Preemergence): 100
Horseweed plant response rating (Canada horseweed; 125 g ai/ha, preemergence): 100
Plant response rating, Horseweed (Canada horseweed; Preemergence, 31 g ai/ha): 100
Plant response rating, Spanishneedles (spanishneedles; 16 g ai/ha, preemergence): 30
Spanishneedles plant response rating (spanishneedles; preemergence): 100
Plant response rating, Spanishneedles (spanishneedles; Preemergence, 62 g ai/ha): 75
Plant response rating, Spanishneedles (spanishneedles; Preemergence, 31 g ai/ha): 65
Plant response rating (0 to 100), Canarygrass (canarygrass): 0
Plant response rating, Canarygrass (canarygrass; 62 g ai/ha): 0
Plant response rating, Canarygrass (canarygrass; 125 g ai/ha): 0
Plant response rating, Canarygrass (canarygrass; 250 g ai/ha): 10
Plant response rating, Sowthistle (common sowthistle; 16 g ai/ha, preemergence): 0
Sowthistle plant response rating (common sowthistle; 125 g ai/ha, preemergence): 98
Plant response rating, Sowthistle (common sowthistle; Preemergence, 62 g ai/ha): 98
Plant response rating, Sowthistle (common sowthistle; Preemergence, 31 g ai/ha): 95
Plant response rating, Chickweed (common chickweed; 16 g ai/ha, preemergence): 100
Chickweed plant response rating (common chickweed; 62 g ai/ha, Preemergence): 100
Chickweed plant response rating (common chickweed; 125 g ai/ha, preemergence): 100
Plant response rating, Chickweed (common chickweed; Preemergence, 31 g ai/ha): 100
Plant response rating (0 to 100), Chickweed (chickweed): 0
Plant response rating, Chickweed (chickweed; 62 g ai/ha): 0
Plant response rating, Chickweed (chickweed; 125 g ai/ha): 0
Plant response rating, Chickweed (chickweed; 250 g ai/ha): 70
Plant response rating (0 to 100), Barley (winter barley): 0
Plant response rating, Barley (winter barley; 62 g ai/ha): 0
Plant response rating, Barley (winter barley; 125 g ai/ha): 10
Plant response rating, Barley (winter barley; 250 g ai/ha): 40

Cn1nc(C(F)(F)F)c(C[S+]([O-])c2cccc[n+]2[O-])c1Cl (stereo not shown) [Compound 8]
Horseweed plant response rating (Canada horseweed; 62 g ai/ha, Preemergence): 100
Horseweed plant response rating (Canada horseweed; 125 g ai/ha, preemergence): 100
Plant response rating, Horseweed (Canada horseweed; Preemergence, 16 g ai/ha): 0
Plant response rating, Horseweed (Canada horseweed; Preemergence, 31 g ai/ha): 0
Russian Thistle plant response rating (Russian thistle; 125 g ai/ha, preemergence): 100
Sowthistle plant response rating (common sowthistle; 62 g ai/ha, Preemergence): 90
Sowthistle plant response rating (common sowthistle; 125 g ai/ha, preemergence): 100
Plant response rating, Sowthistle (common sowthistle; Preemergence, 31 g ai/ha): 65
Chickweed plant response rating (common chickweed; 62 g ai/ha, Preemergence): 95
Chickweed plant response rating (common chickweed; 125 g ai/ha, preemergence): 98
Plant response rating, Chickweed (common chickweed; Preemergence, 16 g ai/ha): 0
Plant response rating, Chickweed (common chickweed; Preemergence, 31 g ai/ha): 60

Cc1cc[n+]([O-])c([S+]([O-])Cc2c(C(F)(F)F)nn(C)c2OCC(F)(F)F)c1 (racemic) [Compound 30]
Horseweed plant response rating (Canada horseweed; 62 g ai/ha, Preemergence): 100
Horseweed plant response rating (Canada horseweed; 125 g ai/ha, preemergence): 100
Plant response rating, Horseweed (Canada horseweed; Preemergence, 16 g ai/ha): 100
Plant response rating, Horseweed (Canada horseweed; Preemergence, 31 g ai/ha): 100
Russian Thistle plant response rating (Russian thistle; 62 g ai/ha, Preemergence): 100
Russian Thistle plant response rating (Russian thistle; 125 g ai/ha, preemergence): 100
Plant response rating, Russian Thistle (Russian thistle; Preemergence, 16 g ai/ha): 100
Plant response rating, Russian Thistle (Russian thistle; Preemergence, 31 g ai/ha): 100
Sowthistle plant response rating (common sowthistle; 62 g ai/ha, Preemergence): 100
Sowthistle plant response rating (common sowthistle; 125 g ai/ha, preemergence): 100
Plant response rating, Sowthistle (common sowthistle; Preemergence, 31 g ai/ha): 100
Chickweed plant response rating (common chickweed; 62 g ai/ha, Preemergence): 100
Chickweed plant response rating (common chickweed; 125 g ai/ha, preemergence): 100
Plant response rating, Chickweed (common chickweed; Preemergence, 16 g ai/ha): 75
Plant response rating, Chickweed (common chickweed; Preemergence, 31 g ai/ha): 100

Cc1cc[n+]([O-])c(S(=O)(=O)C(Cl)c2c(C(F)(F)F)nn(C)c2OCC(F)(F)F)c1 (racemic) [Compound 37]
Plant response rating, Spanishneedles (spanishneedles; 16 g ai/ha, preemergence): 0
Spanishneedles plant response rating (spanishneedles; preemergence): 0
Plant response rating, Spanishneedles (spanishneedles; Preemergence, 62 g ai/ha): 0
Plant response rating, Spanishneedles (spanishneedles; Preemergence, 31 g ai/ha): 0
Plant response rating, Russian Thistle (Russian thistle; 16 g ai/ha, preemergence): 0
Plant response rating, Russian Thistle (Russian thistle; Preemergence, 31 g ai/ha): 0

Cn1nc(C(F)(F)F)c(C[S+]([O-])c2ccc(F)c[n+]2[O-])c1OCC(F)(F)F (stereo not shown) [Compound 67]
Plant response rating (0 to 100), Windgrass (windgrass; 31 g ai/ha): 30
Plant response rating (0 to 100), Windgrass (windgrass; 62 g ai/ha): 100
Plant response rating, Windgrass (windgrass; 125 g ai/ha): 100
Plant response rating, Windgrass (windgrass; 250 g ai/ha): 100
Plant response rating, Horseweed (Canada horseweed; 16 g ai/ha, preemergence): 0
Horseweed plant response rating (Canada horseweed; 62 g ai/ha, Preemergence): 100
Horseweed plant response rating (Canada horseweed; 125 g ai/ha, preemergence): 100
Plant response rating, Horseweed (Canada horseweed; Preemergence, 31 g ai/ha): 0
Plant response rating, Spanishneedles (spanishneedles; 16 g ai/ha, preemergence): 0
Spanishneedles plant response rating (spanishneedles; preemergence): 98
Plant response rating, Spanishneedles (spanishneedles; Preemergence, 62 g ai/ha): 90
Plant response rating, Spanishneedles (spanishneedles; Preemergence, 31 g ai/ha): 65
Plant response rating (0 to 100), Canarygrass (canarygrass): 0
Plant response rating, Canarygrass (canarygrass; 62 g ai/ha): 0
Plant response rating, Canarygrass (canarygrass; 125 g ai/ha): 10
Plant response rating, Canarygrass (canarygrass; 250 g ai/ha): 10
Plant response rating, Sowthistle (common sowthistle; 16 g ai/ha, preemergence): 80
Sowthistle plant response rating (common sowthistle; 125 g ai/ha, preemergence): 100
Plant response rating, Sowthistle (common sowthistle; Preemergence, 62 g ai/ha): 100
Plant response rating, Sowthistle (common sowthistle; Preemergence, 31 g ai/ha): 80
Chickweed plant response rating (common chickweed; 62 g ai/ha, Preemergence): 100
Chickweed plant response rating (common chickweed; 125 g ai/ha, preemergence): 100
Plant response rating, Chickweed (common chickweed; Preemergence, 31 g ai/ha): 40
Plant response rating (0 to 100), Chickweed (chickweed): 0
Plant response rating, Chickweed (chickweed; 62 g ai/ha): 60
Plant response rating, Chickweed (chickweed; 125 g ai/ha): 70
Plant response rating, Chickweed (chickweed; 250 g ai/ha): 95
Plant response rating (0 to 100), Barley (winter barley): 0
Plant response rating, Barley (winter barley; 62 g ai/ha): 10
Plant response rating, Barley (winter barley; 125 g ai/ha): 50
Plant response rating, Barley (winter barley; 250 g ai/ha): 50
